The results in this text go back to US20030170656A1, “Method of screening for factors that modulate gene expression” (Chiron Corporation, priority 1995, published 2003).

What all share (assay type): cell-based
In experiment [1] the test system is serum responsive element (SRE)-luciferase construct in FTL cells. The experiment can be described thus: SRE-luciferase reporter assay (luciferase assay) in NIH3T3 derived FTL cells. To be noted: 4000 cells. How it is done:
(§1) A construct comprising in operable linkage a luciferase reporter gene and the serum responsive element (SRE) was stably transfected into NIH3T3 derived FTL cells which were selected as the responsive cells. Plasmid DNAs from small library pools of 100 to 500 independent colonies per pool were constructed and in vitro transcribed into cRNAs. Each pool of cRNAs were injected into Xenopus laevis oocytes and cultured at 18° C. overnight. The next day, each oocyte was then cocultured with FTL cells transfected with the SRE-luciferase construct and incubated at 37° C. for three hours in a microwell. The oocytes were removed and induction of luciferase gene was assayed by luciferase assay, and also by bDNA assay against luciferase mRNA. The luciferase assay was sensitive to 4000 cells with a minimum concentration of 1 nM of PDGFBB (PDGF β chain dimer). The bDNA assay detected a lower concentration of library, with the ability to detect from 4000 cells less than 0.01 nM of PDGFBB.

In experiment [2] the test system is luciferase mRNA (SRE-luciferase construct) in FTL cells. In words: bDNA assay against luciferase mRNA in SRE-luciferase FTL cells. As to conditions: 4000 cells. How it is done:
as §1

In experiment [3] the test system is c-fos mRNA in FTL cells. The experiment can be described thus: bDNA assay against c-fos mRNA in NIH3T3 derived FTL cells. How it is done: To assay for a growth factor that stimulates the expression of the c-fos gene, NIH3T3 derived FTL cells were selected as the responsive cells. A library for screening is prepared from human tissue as described above for expression in Xenopus oocytes. Plasmid DNAs from small library pools of 100 to 500 independent colonies per pool were constructed and in vitro transcribed into cRNAs. Each pool of cRNAs were injected into Xenopus laevis oocytes and cultured at 18° C. overnight. The next day, each oocyte was then cocultured on a bed of NIH3T3 derived FTL cells in a microwell and incubated at 37° C. for three hours.
The oocytes were removed and induction of c-fos messenger was measured by bDNA assay against c-fos mRNA. […] In the present experiment, a bDNA assay detected a lower concentration of library, with the ability to detect from 4000 FTL cells less than 0.01 nM of PDGFBB (PDGF β chain dimer). As previously described, administration of PDGFBB to cells, including FTL cells, induces the transcription of the c-fos gene.

Experiment [4] deals with c-fos mRNA in NIH3T3 cells. In words: c-fos induction by bDNA assay in NIH3T3 cells (small molecule pool screen with PDGFBB). To be noted: bDNA against c-fos mRNA, read-out: concentration giving 50% of maximal c-fos induction. How it is done: Small molecule library pools are prepared as described above, and 48 such pools were marked and divided for screening. An aliquot of each pool (2 μM final concentration) was placed in a micro-well on a bed of NIH3T3 cells in a microwell and incubated at 37° C. for 45 minutes with 1 ηM PDGFBB.
Each well was assayed by induction of c-fos messenger by bDNA assay against c-fos mRNA. In a previous study (described in example 8), a bDNA assay detected induction of c-fos mRNA by less than 0.01 ηM of PDGFBB (PDGF β chain dimer). 1 ηM of PDGFBB gives 50% of maximal c-fos induction. As previously described, administration of PDGFBB to cells, including FTL cells, induces the transcription of the c-fos gene.
In this study, induction or reduction of the c-fos gene was measured by bDNA. Where an agonist was present in the small molecule library pool, c-fos induction was expected to occur at about the same level or greater as induction by administration of PDGFBB. Where an antagonist was present in the small molecule library pool, c-fos transcription was expected to be reduced perhaps to non-detectable levels. […]

The subject of experiment [5] is c-fos transcription in NIH3T3 cells. The experiment can be described thus: Xenopus oocyte/NIH3T3 coculture, c-fos induction by bDNA assay. To be noted: compared to non-stimulated NIH3T3 cells. From the text: Manual defolliculated Xenopus oocytes are excellent at expressing in vitro transcribed cRNA and its background c-fos induction activity is almost none. Taking advantage of the size of Xenopus oocytes, a coculture system using Xenopus oocytes and NIH3T3 cells was developed in microplates which allowed the detection of both diffusible and membrane-attached nondiffusible growth factors. However, it was shown that damaged oocytes produce significant c-fos induction in NIH3T3 cells. A repeatable condition was established, however, which was sensitive enough to detect PDGF c-sis activity secreted from an oocyte injected with 0.08 ng of PDGF c-sis cRNA. This sensitivity was shown allowing for detection of PDGF c-sis activity in a pool of 600 clones. Screening was then conducted of 350 pools of a mouse brain cDNA library with a diversity of an average of 150 clones per pool, and 100 pools of a Xenopus embryo library with a diversity of 80 clones per pool. Considering the biological variation between oocytes, each pool of cRNA was injected into three oocytes and subsequently yielded triplicate results.
Among these 450 pools, 61 pools were initially found positive. After multiple repeated experiments, 14 remained moderately positive. […] The nucleotide and translated protein sequence for clone 16.1 was determined, and is represented in SEQ ID NO. […]

For PDGFBB: PDGF β chain dimer, the “minimum concentration detected by luciferase assay” value in experiment [1] was determined as 1 nM. The “concentration detectable by bDNA assay against luciferase mRNA” value in experiment [2] is “less than 0.01 nM”. The “concentration detectable by bDNA assay against c-fos mRNA” value in experiment [3] (4000 FTL cells) is recorded as “less than 0.01 nM”. Also, the “concentration inducing c-fos mRNA detected by bDNA assay” value in experiment [3] (as restated in Example 9 from Example 8) is recorded as “less than 0.01 ηM”. Moreover, the EC50 in experiment [4] amounted to 1 nM.

B1: 16.1: 61 amino acid polypeptide of SEQ ID NO. 2, deconvoluted from pool 16.1, capable of inducing c-fos transcription in NIH3T3 cells (protein)
chain: MTLMVFKCSDNLLLIVVYAKVFPSTSCIHYQIYTCKFEVLLFSQHELKIFCNSARQGSSCL
On to B1, for which the results for the “induction of c-fos transcription” value in experiment [5] and in experiment [5] (listed as SEQ ID NO. 2) were 5 fold and “about 5 fold”, respectively.
